{
  "source": "patent US12297457B2",
  "about": "“Esophageal tissue and/or organoid compositions and methods of making same” (Children's Hospital Medical Center, priority 2017, dated 2025)",
  "molecules": {"B1": {"name": "FGF10: recombinant human FGF10 (protein, UniProt O15520 38-208, looked up)", "Fibroblast growth factor 10": "QALGQDMVSPEATNSSSSSFSSPSSAGRHVRSYNHLQGDVRWRKLFSFTKYFLKIEKNGKVSGTKKENCPYSILEITSVEIGVVAVKAINSNYYLAMNKKGKLYGSKEFNNDCKLKERIEENGYNTYASFNWQHNGRQMYVALNGKGAPRRGQKTRRKNTSAHFLPMVVHS"}},
  "key": {"[1]": {"test_system": "Xenopus endoderm explants", "assay": "nkx2-1 in situ hybridization of Xenopus endoderm explants", "type": "cell-based, Xenopus laevis", "conditions": "sox2 morpholino knock down; explants analysed at stage NF35", "experimental": "Xenopus laevis adults were purchased from the Nasco (Fort Atkinson, Wis.), and housed according to CCHMC IACUC protocols. Ovulation, in vitro fertilization, and de-jellying of embryos were performed as described (Sive et al., 2000). A mixture of previously validated Sox2 morpholinos (MOs; Van Raay et al., 2005) targeting the 5′UTR (Sox2-UTR MO) and the ATG start codon (Sox2-ATG MO) were injected at the 8-cell stage into each vegetal blastomere (2 ng total MO per blastomere, 8 ng total per embryo) to target endoderm. MOs were synthesized and purchased from GeneTools. Equal amount of control MO was used in control injections.\nFor Xenopus explant studies, stage NF20 foregut endoderm tissue was micro-dissected in 1×MBS (Modified Barth's Saline; Sive et al., 2000)+50 ug/mL gentamycin sulfate (MP Biochemicals), +4% Ficoll-400 (Sigma) and explants were then cultured in 0.5×MBS+0.1% Fatty Acid Free BSA (Fisher)+50 ug/mL gentamycin sulfate with or without the following concentrations of small molecules or recombinant proteins from stages […] (approximately 48 hours): 3.5 μM Bio (Tocris), 50 ng/mL recombinant human BMP4 (R&D systems).\nIn situ hybridization on mouse sections was performed by generating DIG-labeled probes from linearized mouse cDNA plasmids. […]"}, "foregut spheroids": {"test_system": "foregut spheroids", "assay": "Anterior-posterior patterning of foregut spheroids (qPCR, IF)", "type": "cell-based, human", "conditions": "TGFβ inhibitor added during foregut induction; SB431542, 10 μM", "experimental": "Confluent hPSC cultures were treated with Acutase (STEMCELL Technologies) to resuspend as single cells in mTeSR1 and Y-27632 (10 μM, Tocris) and plated on Matrigel. On the following day, differentiation into definitive endoderm was carried out as previously described (McCracken et al., 2014). Briefly, cells were treated with Activin A (100 ng mL-1, R&D systems, Minneapolis, Minn.) and BMP4 (50 ng mL-1, R&D systems) on the first day in RPMI 1640 media (Life Technologies). Cells in the following two days were treated with only Activin A (100 ng mL-1) in RPMI 1640 with increasing concentrations 0.2% and 2% of HyClone defined fetal bovine serum (dFBS, GE Healthcare Life Sciences).\nFor anterior foregut monolayer cultures, cells were treated for 3 days in Noggin (200 ng mL-1) in RPMI 1640 with 2% dFBS, with all-trans retinoic acid (2 μM, Sigma, St. Louis, Mo.) the 3rd day.\n(§1) Alternately, for the generation of anterior foregut spheroids, from definitive endoderm, cells were treated with FGF4 (500 ng mL-1, R&D systems), Noggin (200 ng mL-1) for 3 days in RPMI 1640 with 2% dFBS. Additional factors were tested during this time (described in results), such as CHIR99021 (“chiron” or “chr”, 2 μM, Tocris), Wnt3a (500 ng mL-1, R&D systems), SB431542 (10 μM, Tocris), DEAB (10 μM, Sigma), and retinoic acid (2 μM).\nTissue cultures were fixed with 4% paraformaldehyde at either room temperature for 15 minutes, 4° C. for 2 hours for cryosectioning, or 4° C. overnight for paraffin embedding/sectioning and mouse embryos. For paraffin embedding and sectioning, following fixation, tissues were dehydrated and embedded into paraffin blocks. Afterwards, paraffin-sectioned slides were deparaffinized and subjected to antigen retrieval in 10 mM sodium citrate for 30 minutes prior to staining. For cryosectioning, tissues were thoroughly washed in PBS, left in 30% sucrose overnight, embedded in OCT compound (VWR), and sectioned at a thickness of 8 μm. Commonly, slides were then permeabilized with 0.5% TritonX-100 in PBS for 10 minutes, blocked in 5% normal donkey serum (Jackson ImmunoResearch) for 1 hour, and incubated in primary antibody overnight at 4° C. On the next day, slides were thoroughly washed in PBS, incubated in secondary antibody (at 1:500) for 1 hour, and then thoroughly washed again. For EdU visualization, Applicant used the Click-iT EdU Alexa Fluor 488 Imaging Kit (Invitrogen) prior to blocking. For wholemount immunofluorescence staining, embryos were placed in 100% methanol immediately after fixation. Embryos were then permeabilized with Dent's Bleach (4:1:1 MeOH:DMSO:30% H2O2) for 2 hours at room temperature, rehydrated with methanol washes, and blocked for several hours at room temperature to overnight at 4° C. Primary antibodies were applied and embryos incubated overnight at 4° C. Then, embryos were thoroughly washed in 0.1% TritonX-100 in PBS before incubating in secondary antibodies overnight at 4° C. Finally, embryos were washed again, dehydrated with methanol washes, and cleared with Murray's Clear (2:1 benzyl benzoate:benzyl alcohol, Sigma) at least 15 minutes prior to imaging. For a list of antibodies and dilutions used, please see Table 2.\nSpheroid and organoids were harvested in total, including the embedding matrigel. Collagen plugs from the organotypic raft cultures were first removed from the transwell on day 14, and subsequently harvested in total. Total RNA was isolated using the NucleoSpin RNA kit (Macherey-Nagel) and reverse transcribed to cDNA using the SuperScript VILO cDNA synthesis kit (ThermoFisher Scientific). For qRT-PCR, Applicant used Quantitect SYBR-Green master mix (Qiagen) and ran the reaction on a QuantStudio 6 machine (ThermoFisher Scientific). For a list of primers used, please see Table 1."}, "AFG spheroids": {"test_system": "AFG spheroids", "assay": "Dorsal-ventral patterning / respiratory induction of anterior foregut spheroids (qPCR, IF)", "type": "cell-based, human", "conditions": "TGFβ inhibitor added during foregut induction; day 9 spheroids", "experimental": "as §1\nAnterior foregut spheroids were transferred into 50 μL droplets of Matrigel, and are cultured for 3-58 days in the base (“Gut”) media of Advanced DMEM/F12 (ThermoFisher Scientific) supplemented with B27 supplement (1×, ThermoFisher Scientific), N2 supplement (1×, ThermoFisher Scientific), HEPES (13 mM, ThermoFisher Scientific), L-Glutamine (2 mM ThermoFisher Scientific), penicillin/streptomycin (1×, ThermoFisher Scientific), and EGF (100 ng mL^−1, R&D systems). In addition to this base media, the first three days were supplemented with Noggin (200 ng mL^−1), FGF10 (50 ng mL^−1), and CultureOne supplement (1×, ThermoFisher Scientific). […]\nSpheroid and organoids were harvested in total, including the embedding matrigel. […] For qRT-PCR, Applicant used Quantitect SYBR-Green master mix (Qiagen) and ran the reaction on a QuantStudio 6 machine (ThermoFisher Scientific). […]"}, "[2]": {"test_system": "anterior foregut (AFG) cultures", "assay": "Doxycycline-induced CDX2 in anterior foregut cultures (IF quantification)", "type": "cell-based, human", "conditions": "AFG cultures treated for 1 day", "experimental": "Human embryonic stem cell (hESC) line H1 (WA01, person) were purchased from WiCell. iPSC line iPS106 was generated in-house and approved by the institutional review board at CCHMC. All hPSCs were maintained on feeder-free cultures: cells were plated on hESC-qualified Matrigel (BD Biosciences, San Jose, Calif.) and maintained at 37° C. with 5% CO2 with daily replacement of mTeSR1 media (STEMCELL Technologies, Vancouver, Canada); cells were passaged routinely every 4 days using Dispase (STEMCELL Technologies). The HA-tagged SOX2, CDX2, or FANCA dox-inducible lines were generated by first cloning the human SOX2 ORF, CDX2 ORF, or FANCA ORF into pINDUCER20 (respectively) (Addgene #44012, Meerbrey et al., 2011). Next, lentivirus was generated with help of the Viral Vector Core Facility at CCHMC. The lentivirus for HA-SOX2 and CDX2 were transduced into hESCs with 2 μL of virus; these lines were maintained on selection with mTeSR1 and G418 (500 μg mL-1, ThermoFisher Scientific). The lentivirus for FANCA were transduced prior to the iPS106 line generation, as FANCA is required for maintenance of hPSC properties. The hESC H1 line (and transduced derivatives) was used in all experiments excluding Fanconi Anemia modeling in HEOs, which used the iPS106 line. […]"}, "[3]": {"test_system": "dorsally-patterned AFG spheroids", "assay": "Outgrowth of dorsally-patterned AFG spheroids into esophageal organoids", "type": "cell-based, human", "conditions": "added from day 6 to day 13", "experimental": "Anterior foregut spheroids were transferred into 50 μL droplets of Matrigel, and are cultured for 3-58 days in the base (“Gut”) media of Advanced DMEM/F12 (ThermoFisher Scientific) supplemented with B27 supplement (1×, ThermoFisher Scientific), N2 supplement (1×, ThermoFisher Scientific), HEPES (13 mM, ThermoFisher Scientific), L-Glutamine (2 mM ThermoFisher Scientific), penicillin/streptomycin (1×, ThermoFisher Scientific), and EGF (100 ng mL^−1, R&D systems). In addition to this base media, the first three days were supplemented with Noggin (200 ng mL^−1), FGF10 (50 ng mL^−1), and CultureOne supplement (1×, ThermoFisher Scientific). FGF10 and CultureOne supplementation is continued until the end of the first week in three-dimensional culture. Media was replaced every 3-4 days. For EdU labeling, media was supplemented with EdU (10 μM Invitrogen) for a defined period of time, and was removed by washing with sterile PBS twice before replacing with media without EdU."}},
  "data": [
    {"molecule": "O=C1Nc2cc(Br)ccc2/C1=C1/Nc2ccccc2/C1=N\\O", "note": "[Bio]", "values": [
      {"measurement": "nkx2-1 expression", "setting": "[1]", "result": "did not activate nkx2-1 expression"}
    ]},
    {"molecule": "NC(=O)c1ccc(-c2nc(-c3ccc4c(c3)OCO4)c(-c3ccccn3)[nH]2)cc1", "note": "[TGFβ inhibitor, SB431542, reference compound]", "values": [
      {"measurement": "posterior foregut markers", "setting": "foregut spheroids", "result": "increase in posterior foregut markers"},
      {"measurement": "upregulation of NKX2-1 on respiratory induction", "setting": "AFG spheroids", "result": "reduces upregulation of NKX2-1"}
    ]},
    {"molecule": "C[C@H]1c2cccc(O)c2C(=O)C2=C(O)[C@]3(O)C(=O)C(C(N)=O)=C(O)[C@@H](N(C)C)[C@@H]3[C@@H](O)[C@@H]21", "note": "[doxycycline, Doxycycline]", "values": [
      {"measurement": "doxycycline concentration at which CDX2 induction saturates", "setting": "[2]", "result": "100 to 500", "unit": "ng/mL"}
    ]},
    {"molecule": "B1", "values": [
      {"measurement": "efficiency of spheroid to organoid outgrowth", "setting": "[3]", "result": "improved efficiency of spheroid to organoid outgrowth"},
      {"measurement": "patterning and differentiation into esophageal organoids", "setting": "[3]; data not shown", "result": "did not affect"}
    ]}
  ]
}
